From US4232010A, “Calcium-antagonistic composition” (Kanebo, Ltd., priority 1978, dated 1980)
Read-outs that look alike come from different tables or passages of the source.

Experiments:
[1] = biological target: T1, taenia coli (Cavia porcellus, UniProt O35505); test: Calcium antagonist activity (pA2), isolated guinea-pig taenia coli; conditions: 5 cases, read-out: pA2 (mean ± standard error) of calcium antagonist activity (converted)
T1 construct: a test was conducted using isolated taenia colis about 2 cm long; from tissue; host or cells: isolated guinea-pig taenia coli
Description: (§1) Male guinea-pigs weighing 350-450 g each were slaughtered and a test was conducted using isolated taenia colis about 2 cm long. A taenia coli was suspended in a Magnus chamber (Locke solution, 25°±2° C., aerated) and the contractile response of the taenia coli was recodered through an isotonic transducer. To the decalcified taenia coli was cumulatively added 0.1 to 100 mM of calcium in the presence of 6×10^-3 g/ml of K^+ to obtain a dose-contraction curve for calcium and, after the taenia coli was decalcified again, a dose-contraction curve for calcium was determined in the presence of the test compound. Based on the difference between the responses, the pA2 of calcium antagonist activity of the test compound was computed.

[2] = test system: isolated guinea-pig heart; test: Action on coronary blood flow, isolated guinea-pig heart (Langendorff); conditions: Cavia porcellus, dosage 10 γ/heart, read-out: Maximum increase in coronary flow (Δ% ± standard error)
Description: Male guinea-pigs with body weights from 400 to 500 g were slaughtered and promptly thoractomized. After the ascending aorta was cannulated, the heart was enucleated. By the method of Langendorff, this isolated heart was perfused with the Krebs-Henseleit fluid oxygenated with a gaseous mixture of 95% O2 and 5% CO2 at a fluid temperature of 34°±1° C. and perfusion pressure of 60 cm H2 O, and the test compound was infused. The coronary flows before and after infusion were measured and the percent gain in coronary flow was obtained. The coronary flow was measured with a square-wave electromagnetic flowmeter (Nihon Kohden, MF-26) with an extracorporeal probe (Nihon Kohden, FE) set at the top of the cannula and recorded with a multipurpose polygraph (Nihon Kohden, RM-85). The test compound was dissolved in propylene glycol to a concentration of 100 γ/ml and 0.1 ml of the solution was infused at the rate of 0.1 ml/min.

[3] = Acute toxicity test in mice, intraperitoneal; conditions: mouse, in vivo, ip, male ddY mice, deaths within 72 hours
Description: An acute toxicity test was performed in male ddY mice (in groups of 5 animals, body weights 20±2 g) by the intraperitoneal administration of a test compound.
A suspension of each compound in 0.5% carboxymethylcellulose was administered, the deaths within 72 hours were counted and the LD50 values were calculated by the method of Weil.

[4] = biological target: T2, taenia coli (Cavia porcellus); test: Calcium antagonist activity (pA2), isolated guinea-pig taenia coli
T2 construct: a test was conducted using isolated taenia colis about 2 cm long; from tissue; host or cells: isolated guinea-pig taenia coli
Description: as §1

[5] = test system: coronary flow and blood pressure; test: Action on coronary flow and blood pressure (intravenous administration into dogs); type: in vivo, dog; conditions: 0.2 mg/kg
Description: Dogs weighing 11 to 24 kg were anaesthetized with pentobarbital sodium (35 mg/kg, intraperitoneal) and, under supportive respiration, a right thoractomy was performed by removing the fourth rib. The pericardial membrane was then incised to expose the heart. The coronary sinus flow was measured with a cannula inserted from the right auricle into the coronary sinus and connected to an electromagnetic flowmeter (Nihon Kohden K.K., MF-26.) The outflowing blood was returned to the femoral vein through a rubber tubing.
The blood pressure was measured with a pressure transducer (Nihon Kohden K.K., MPU-0.5) connected to the cannula inserted into the femoral artery, and was recorded with a multipurpose polygraph (Nihon Kohden K.K., RM-85) which also recorded the coronary blood flow. The heart rate was calculated based on the electrocardiogram. The test compound was dissolved in dog serum and injected into the femoral vein.

[6] = test system: coronary flow and blood pressure; test: Activity on intraduodenal administration to dogs (coronary flow, blood pressure, heart rate); type: in vivo, dog; conditions: 10 mg/kg
Description: Dogs weighing 12 to 22 kg were anaesthetized with pentobarbital sodium [35 mg/kg, i.p.] and under supportive respiration, a left thoractomy was performed at the fourth interspace. The pericardium was incised to expose the heart and the blood flow through circumflex branch of left coronary was measured with an electromagnetic flowmeter (Nihon Kohden K.K., MF-26). The blood pressure was measured from a cannula inserted into the carotid artery through a pressure transducer (Nihon Kohden K.K., MPU-0.5), while the heart rate was calculated based on the electrocardiogram. The abdomen was sutured with the end of the cannula left out of the body and the test compound was administered. The test compound was diluted with 0.5% CMC to a concentraion of 10 mg/ml and administered at a dose of 10 mg/kg.

[7] = time after administration 5 (unit not given)
[8] = time after administration 30 (unit not given)
[9] = time after administration 60 (unit not given)
[10] = time after administration 120 (unit not given)

T1 sequence (O35505 whole entry): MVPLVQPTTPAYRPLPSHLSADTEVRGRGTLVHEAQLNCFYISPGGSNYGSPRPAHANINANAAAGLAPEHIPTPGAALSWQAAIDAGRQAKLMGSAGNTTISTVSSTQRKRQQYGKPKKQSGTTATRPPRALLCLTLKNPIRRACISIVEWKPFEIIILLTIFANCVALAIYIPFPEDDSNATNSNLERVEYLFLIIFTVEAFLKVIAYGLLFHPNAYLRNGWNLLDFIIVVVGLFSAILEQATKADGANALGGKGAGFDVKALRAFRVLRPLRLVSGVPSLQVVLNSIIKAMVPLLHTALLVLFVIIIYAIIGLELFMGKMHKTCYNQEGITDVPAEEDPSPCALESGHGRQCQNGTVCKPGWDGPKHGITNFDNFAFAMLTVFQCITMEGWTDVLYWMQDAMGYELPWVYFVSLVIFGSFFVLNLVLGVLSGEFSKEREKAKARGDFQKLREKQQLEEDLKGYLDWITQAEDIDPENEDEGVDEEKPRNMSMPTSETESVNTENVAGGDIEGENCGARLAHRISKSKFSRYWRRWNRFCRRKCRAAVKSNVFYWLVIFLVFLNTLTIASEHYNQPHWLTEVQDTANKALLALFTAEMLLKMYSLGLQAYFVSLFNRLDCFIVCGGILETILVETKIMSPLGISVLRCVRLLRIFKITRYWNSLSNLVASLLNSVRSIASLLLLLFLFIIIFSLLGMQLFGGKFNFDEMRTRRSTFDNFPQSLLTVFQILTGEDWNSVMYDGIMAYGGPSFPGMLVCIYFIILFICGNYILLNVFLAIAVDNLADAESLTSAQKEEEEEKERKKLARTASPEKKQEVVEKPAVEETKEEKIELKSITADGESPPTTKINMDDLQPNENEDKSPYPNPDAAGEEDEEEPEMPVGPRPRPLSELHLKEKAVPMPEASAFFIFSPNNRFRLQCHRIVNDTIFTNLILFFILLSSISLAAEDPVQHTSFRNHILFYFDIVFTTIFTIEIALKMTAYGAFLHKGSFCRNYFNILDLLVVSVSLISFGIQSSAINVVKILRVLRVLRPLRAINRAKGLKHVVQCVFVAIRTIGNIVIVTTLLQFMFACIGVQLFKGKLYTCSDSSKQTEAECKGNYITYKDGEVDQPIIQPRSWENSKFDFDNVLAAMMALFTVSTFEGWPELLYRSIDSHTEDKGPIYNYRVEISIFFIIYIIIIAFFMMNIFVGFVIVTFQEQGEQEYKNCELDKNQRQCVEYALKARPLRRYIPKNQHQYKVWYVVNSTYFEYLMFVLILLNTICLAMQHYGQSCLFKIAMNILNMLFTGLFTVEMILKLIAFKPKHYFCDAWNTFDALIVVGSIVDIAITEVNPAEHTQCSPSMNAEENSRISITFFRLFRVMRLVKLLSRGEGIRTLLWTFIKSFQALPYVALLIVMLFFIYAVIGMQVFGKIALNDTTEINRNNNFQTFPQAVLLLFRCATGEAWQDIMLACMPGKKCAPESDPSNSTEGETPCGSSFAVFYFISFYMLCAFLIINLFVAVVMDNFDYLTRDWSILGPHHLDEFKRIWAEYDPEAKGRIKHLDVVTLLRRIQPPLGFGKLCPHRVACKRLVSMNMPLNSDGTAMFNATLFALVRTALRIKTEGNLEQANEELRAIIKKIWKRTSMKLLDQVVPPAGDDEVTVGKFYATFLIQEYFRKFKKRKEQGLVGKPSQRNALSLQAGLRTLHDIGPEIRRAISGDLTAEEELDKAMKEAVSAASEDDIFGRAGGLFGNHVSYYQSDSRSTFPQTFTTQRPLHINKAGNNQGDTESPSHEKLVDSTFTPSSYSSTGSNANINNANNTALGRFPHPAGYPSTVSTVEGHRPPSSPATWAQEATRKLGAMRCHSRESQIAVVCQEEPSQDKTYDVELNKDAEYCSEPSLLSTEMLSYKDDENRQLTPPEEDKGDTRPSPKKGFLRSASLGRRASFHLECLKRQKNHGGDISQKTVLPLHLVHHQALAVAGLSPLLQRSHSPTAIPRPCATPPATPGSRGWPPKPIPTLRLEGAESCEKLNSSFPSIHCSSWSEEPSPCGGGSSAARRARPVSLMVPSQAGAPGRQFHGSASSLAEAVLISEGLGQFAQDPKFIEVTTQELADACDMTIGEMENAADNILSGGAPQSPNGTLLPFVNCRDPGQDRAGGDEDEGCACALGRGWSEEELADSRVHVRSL
T2 sequence (O35505 whole entry): as above

## CC(C)OP(=O)(Cc1ccc(-c2nc3ccccc3s2)cc1)OC(C)C [1-(benzothiazol-2-yl)-4-di-iso-propyloxyphosphinylmethylbenzene]
[1]; test compound 3 × 10^-6 g/ml
  Kb: 776 nM
[2]
  activation at 10 µg/heart: 90.7 ± 31.7%
[3]
  LD50 at 72 h: 1660 mg/kg

## CCCCOP(=O)(Cc1ccc(-c2nc3ccccc3s2)cc1)OCCCC [1-(benzothiazol-2-yl)-4-di-n-butyloxyphosphinylmethylbenzene]
[2]
  activation at 10 µg/heart: 65.1 ± 22.8%
[3]
  LD50 at 72 h: > 2250 mg/kg

## CCCOP(=O)(Cc1ccc(-c2nc3ccccc3s2)cc1)OCCC [1-(benzothiazol-2-yl)-4-di-n-propyloxyphosphinylmethylbenzene]
[2]
  activation at 10 µg/heart: 65.1 ± 12.2%
[3]
  LD50 at 72 h: > 2250 mg/kg

## CCOP(=O)(Cc1ccc(-c2nc3ccccc3s2)cc1)OCC [1-(benzothiazol-2-yl)-4-diethoxyphosphinylmethylbenzene]
[4]
  Kb: 120 nM
[2]
  activation at 10 µg/heart: 83.8 ± 9%
[5]
  Change in heart rate (Δbeats/min. ± standard error): -11.2 ± 2.1 Δbeats/min.
  Increase in coronary senus outflow (Δ% ± standard error): 42.8 ± 6.2 Δ%
  Mean change in blood pressure (ΔmmHg ± standard error): -10.0 ± 3.6 ΔmmHg
[3]
  LD50 at 72 h: 962 mg/kg

## COP(=O)(Cc1ccc(-c2nc3ccccc3s2)cc1)OC [1-(benzothiazol-2-yl)-4-dimethoxyphosphinylmethylbenzene]
[2]
  activation at 10 µg/heart: 38.5 ± 13.6%
[3]
  LD50 at 72 h: 1070 mg/kg

## CC(C)OP(=O)(Cc1ccc(-c2nc3ccccc3s2)nc1)OC(C)C [2-(benzothiazol-2-yl)-5-di-iso-propyloxyphosphinylmethylpyridine]
[1]; test compound 1 × 10^-6 g/ml
  Kb: 2570 nM
[2]
  activation at 10 µg/heart: 79.9 ± 13.1%
[3]
  LD50 at 72 h: > 2250 mg/kg

## CCCCOP(=O)(Cc1ccc(-c2nc3ccccc3s2)nc1)OCCCC [2-(benzothiazol-2-yl)-5-di-n-butyloxyphosphinylmethylpyridine]
[1]; test compound 1 × 10^-6 g/ml
  Kb: 4070 nM
[2]
  activation at 10 µg/heart: 50.3 ± 10.8%

## CCCOP(=O)(Cc1ccc(-c2nc3ccccc3s2)nc1)OCCC [2-(benzothiazol-2-yl)-5-di-n-propyloxyphosphinylmethylpyridine]
[1]; test compound 1 × 10^-6 g/ml
  Kb: 1120 nM
[2]
  activation at 10 µg/heart: 66 ± 21.6%
[3]
  LD50 at 72 h: 713 mg/kg

## CCOP(=O)(Cc1ccc(-c2nc3ccccc3s2)nc1)OCC [2-(benzothiazol-2-yl)-5-diethoxyphosphinylmethylpyridine]
[4]
  Kb: 37.2 nM
[2]
  activation at 10 µg/heart: 98.6 ± 10.6%
[5]
  Change in heart rate (Δbeats/min. ± standard error): -16.3 ± 3.2 Δbeats/min.
  Increase in coronary senus outflow (Δ% ± standard error): 74.4 ± 7.3 Δ%
  Mean change in blood pressure (ΔmmHg ± standard error): -14.5 ± 5.4 ΔmmHg
[6]; [7]
  Change in heart rate (Δbeats/min. ± standard error): -5.6 ± 1.2 Δbeats/min.
  Increase in blood flow through circumflex branch of left coronary (Δ% ± standard error): 14.3 ± 7.4 Δ%
  Mean change in blood pressure (ΔmmHg ± standard error): -12.9 ± 3.4 ΔmmHg
[6]; [8]
  Change in heart rate (Δbeats/min. ± standard error): -23.3 ± 3.8 Δbeats/min.
  Increase in blood flow through circumflex branch of left coronary (Δ% ± standard error): 37.7 ± 9.6 Δ%
  Mean change in blood pressure (ΔmmHg ± standard error): -12.4 ± 2.3 ΔmmHg
[6]; [9]
  Change in heart rate (Δbeats/min. ± standard error): -26.9 ± 3.8 Δbeats/min.
  Increase in blood flow through circumflex branch of left coronary (Δ% ± standard error): 54.4 ± 11.3 Δ%
  Mean change in blood pressure (ΔmmHg ± standard error): -11.0 ± 3.5 ΔmmHg
[6]; [10]
  Change in heart rate (Δbeats/min. ± standard error): -26.4 ± 3.8 Δbeats/min.
  Increase in blood flow through circumflex branch of left coronary (Δ% ± standard error): 50.7 ± 12.7 Δ%
  Mean change in blood pressure (ΔmmHg ± standard error): -11.2 ± 3.9 ΔmmHg
[3]
  LD50 at 72 h: 1060 mg/kg

## COP(=O)(Cc1ccc(-c2nc3ccccc3s2)nc1)OC [2-(benzothiazol-2-yl)-5-dimethoxyphosphinylmethylpyridine]
[2]
  activation at 10 µg/heart: 28.6 ± 3.8%

## COc1ccc([C@@H]2Sc3ccccc3N(CCN(C)C)C(=O)[C@@H]2OC(C)=O)cc1 [Diltiazem, reference compound]
[2]
  activation at 10 µg/heart: 66 ± 7.1%
[5]
  Change in heart rate (Δbeats/min. ± standard error): -20.5 ± 7.8 Δbeats/min.
  Increase in coronary senus outflow (Δ% ± standard error): 67.9 ± 8.5 Δ%
  Mean change in blood pressure (ΔmmHg ± standard error): -21.4 ± 6.1 ΔmmHg
[6]; [7]
  Change in heart rate (Δbeats/min. ± standard error): 1.6 ± 2.0 Δbeats/min.
  Increase in blood flow through circumflex branch of left coronary (Δ% ± standard error): 1.8 ± 1.8 Δ%
  Mean change in blood pressure (ΔmmHg ± standard error): -2.4 ± 1.3 ΔmmHg
[6]; [8]
  Change in heart rate (Δbeats/min. ± standard error): -13.2 ± 1.2 Δbeats/min.
  Increase in blood flow through circumflex branch of left coronary (Δ% ± standard error): 34.4 ± 8.2 Δ%
  Mean change in blood pressure (ΔmmHg ± standard error): -11.0 ± 1.3 ΔmmHg
[6]; [9]
  Increase in blood flow through circumflex branch of left coronary (Δ% ± standard error): 33.0 ± 12.2 Δ%
  Mean change in blood pressure (ΔmmHg ± standard error): -14.4 ± 2.3 ΔmmHg
[6]; [10]
  Change in heart rate (Δbeats/min. ± standard error): -23.6 ± 4.0 Δbeats/min.
  Increase in blood flow through circumflex branch of left coronary (Δ% ± standard error): 34.8 ± 15.1 Δ%
  Mean change in blood pressure (ΔmmHg ± standard error): -16.0 ± 4.7 ΔmmHg
